Laboratory results from PubChem BioAssay (NCI).
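96-well plates; 48 h exposure; 5 concentrations. Endpoints by linear interpolation between flanking doses. Not reached: highest tested concentration assigned. The concentration for 50% growth inhibition is given as GI50. TGI: total growth inhibition.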

Tests used:
Test in all cases: NCI-60 cell line screen, 48 h
SN12C renal = test system: SN12C renal
HL-60(TB) leukemia = test system: HL-60(TB) leukemia
ACHN renal = test system: ACHN renal
A498 renal = test system: A498 renal
NCI-H522 lung = test system: NCI-H522 lung
HOP-62 NSCLC = test system: HOP-62 NSCLC
RXF 393 renal = test system: RXF 393 renal
U251 CNS = test system: U251 CNS
NCI-H460 lung = test system: NCI-H460 lung
MDA-MB-231 breast = test system: MDA-MB-231 breast
TK-10 renal = test system: TK-10 renal
SW-620 colon = test system: SW-620 colon
SK-MEL-28 melanoma = test system: SK-MEL-28 melanoma
MOLT-4 leukemia = test system: MOLT-4 leukemia
MCF7 breast = test system: MCF7 breast
HOP-92 NSCLC = test system: HOP-92 NSCLC
MALME-3M melanoma = test system: MALME-3M melanoma
T-47D breast = test system: T-47D breast
SF-539 CNS = test system: SF-539 CNS
SF-295 CNS = test system: SF-295 CNS
SK-MEL-5 melanoma = test system: SK-MEL-5 melanoma
CCRF-CEM leukemia = test system: CCRF-CEM leukemia
OVCAR-4 ovarian = test system: OVCAR-4 ovarian
A549 NSCLC = test system: A549 NSCLC
MDA-MB-435 = test system: MDA-MB-435
HT29 colon = test system: HT29 colon
COLO 205 colon = test system: COLO 205 colon
NCI-H23 lung = test system: NCI-H23 lung
KM12 colon = test system: KM12 colon
BT-549 breast = test system: BT-549 breast
SNB-19 CNS = test system: SNB-19 CNS
EKVX NSCLC = test system: EKVX NSCLC
IGROV1 ovarian = test system: IGROV1 ovarian
HCC-2998 colon = test system: HCC-2998 colon
PC-3 prostate = test system: PC-3 prostate
DU-145 prostate = test system: DU-145 prostate
NCI-H226 lung = test system: NCI-H226 lung
OVCAR-8 ovarian = test system: OVCAR-8 ovarian
LOX IMVI melanoma = test system: LOX IMVI melanoma
HCT-116 colon = test system: HCT-116 colon
HS 578T breast = test system: HS 578T breast
UACC-62 melanoma = test system: UACC-62 melanoma
OVCAR-5 ovarian = test system: OVCAR-5 ovarian
SF-268 CNS = test system: SF-268 CNS
SK-OV-3 ovarian = test system: SK-OV-3 ovarian
OVCAR-3 ovarian = test system: OVCAR-3 ovarian
SK-MEL-2 melanoma = test system: SK-MEL-2 melanoma
K-562 leukemia = test system: K-562 leukemia
SNB-75 CNS = test system: SNB-75 CNS
UO-31 renal = test system: UO-31 renal
CAKI-1 renal = test system: CAKI-1 renal
M14 melanoma = test system: M14 melanoma
SR leukemia = test system: SR leukemia
786-0 renal = test system: 786-0 renal
UACC-257 melanoma = test system: UACC-257 melanoma
RPMI-8226 leukemia = test system: RPMI-8226 leukemia
HCT-15 colon = test system: HCT-15 colon
NCI/ADR-RES ovarian = test system: NCI/ADR-RES ovarian

Q: Which results are given for `c1ccc(-c2n(Cc3ccc4ccccc4n3)c3ccccc3[n+]2Cc2ccc3ccccc3n2)cc1`?
A: GI50 (SN12C renal): 302 nM; TGI (SN12C renal): 1220 nM; GI50 (HL-60(TB) leukemia): 151 nM; TGI (HL-60(TB) leukemia): 620 nM; GI50 (ACHN renal): 1410 nM; TGI (ACHN renal): 3010 nM; GI50 (A498 renal): 147 nM; TGI (A498 renal): 1020 nM; GI50 (NCI-H522 lung): 356 nM; TGI (NCI-H522 lung): 1690 nM; GI50 (HOP-62 NSCLC): 446 nM; TGI (HOP-62 NSCLC): 1950 nM; GI50 (RXF 393 renal): 304 nM; TGI (RXF 393 renal): 1540 nM; GI50 (U251 CNS): 243 nM; TGI (U251 CNS): 1190 nM; GI50 (NCI-H460 lung): 367 nM; TGI (NCI-H460 lung): 1360 nM; GI50 (MDA-MB-231 breast): 269 nM; TGI (MDA-MB-231 breast): 1300 nM; GI50 (TK-10 renal): 426 nM; TGI (TK-10 renal): 1910 nM; GI50 (SW-620 colon): 359 nM; TGI (SW-620 colon): 1690 nM; GI50 (SK-MEL-28 melanoma): 359 nM; TGI (SK-MEL-28 melanoma): 1440 nM; GI50 (MOLT-4 leukemia): 443 nM; TGI (MOLT-4 leukemia): 2090 nM; GI50 (MCF7 breast): 274 nM; TGI (MCF7 breast): 1200 nM; GI50 (HOP-92 NSCLC): 143 nM; TGI (HOP-92 NSCLC): 563 nM; GI50 (MALME-3M melanoma): 336 nM; TGI (MALME-3M melanoma): 1650 nM; GI50 (T-47D breast): 193 nM; TGI (T-47D breast): 1960 nM; GI50 (SF-539 CNS): 354 nM; TGI (SF-539 CNS): 1400 nM; GI50 (SF-295 CNS): 358 nM; TGI (SF-295 CNS): 1390 nM; GI50 (SK-MEL-5 melanoma): 219 nM; TGI (SK-MEL-5 melanoma): 502 nM; GI50 (CCRF-CEM leukemia): 365 nM; TGI (CCRF-CEM leukemia): 2810 nM; GI50 (OVCAR-4 ovarian): 238 nM; TGI (OVCAR-4 ovarian): 1820 nM; GI50 (A549 NSCLC): 346 nM; TGI (A549 NSCLC): 2060 nM; GI50 (MDA-MB-435): 337 nM; TGI (MDA-MB-435): 1220 nM; GI50 (HT29 colon): 221 nM; TGI (HT29 colon): 1230 nM; GI50 (COLO 205 colon): 181 nM; TGI (COLO 205 colon): 415 nM; GI50 (NCI-H23 lung): 262 nM; TGI (NCI-H23 lung): 1140 nM; GI50 (KM12 colon): 344 nM; TGI (KM12 colon): 1300 nM; GI50 (BT-549 breast): 310 nM; TGI (BT-549 breast): 1320 nM; GI50 (SNB-19 CNS): 277 nM; TGI (SNB-19 CNS): 1310 nM; GI50 (EKVX NSCLC): 693 nM; TGI (EKVX NSCLC): 4270 nM; GI50 (IGROV1 ovarian): 244 nM; TGI (IGROV1 ovarian): 1280 nM; GI50 (HCC-2998 colon): 319 nM; TGI (HCC-2998 colon): 1370 nM; GI50 (PC-3 prostate): 230 nM; TGI (PC-3 prostate): 1350 nM; GI50 (DU-145 prostate): 417 nM; TGI (DU-145 prostate): 5550 nM; GI50 (NCI-H226 lung): 424 nM; TGI (NCI-H226 lung): 2640 nM; GI50 (OVCAR-8 ovarian): 341 nM; TGI (OVCAR-8 ovarian): 1460 nM; GI50 (LOX IMVI melanoma): 261 nM; TGI (LOX IMVI melanoma): 1060 nM; GI50 (HCT-116 colon): 247 nM; TGI (HCT-116 colon): 1190 nM; GI50 (HS 578T breast): 391 nM; TGI (HS 578T breast): 2280 nM; GI50 (UACC-62 melanoma): 306 nM; TGI (UACC-62 melanoma): 1240 nM; GI50 (OVCAR-5 ovarian): 376 nM; TGI (OVCAR-5 ovarian): 2000 nM; GI50 (SF-268 CNS): 333 nM; TGI (SF-268 CNS): 1350 nM; GI50 (SK-OV-3 ovarian): 282 nM; TGI (SK-OV-3 ovarian): 1180 nM; GI50 (OVCAR-3 ovarian): 311 nM; TGI (OVCAR-3 ovarian): 1380 nM; GI50 (SK-MEL-2 melanoma): 298 nM; TGI (SK-MEL-2 melanoma): 1110 nM; GI50 (K-562 leukemia): 141 nM; TGI (K-562 leukemia): 1340 nM; GI50 (SNB-75 CNS): 229 nM; TGI (SNB-75 CNS): 937 nM; GI50 (UO-31 renal): 1450 nM; TGI (UO-31 renal): 2890 nM; GI50 (CAKI-1 renal): 1360 nM; TGI (CAKI-1 renal): 3370 nM; GI50 (M14 melanoma): 289 nM; TGI (M14 melanoma): 1430 nM; GI50 (SR leukemia): 357 nM; TGI (SR leukemia): 2420 nM; GI50 (786-0 renal): 1030 nM; TGI (786-0 renal): 2330 nM; GI50 (UACC-257 melanoma): 252 nM; TGI (UACC-257 melanoma): 933 nM; GI50 (RPMI-8226 leukemia): 93.6 nM; TGI (RPMI-8226 leukemia): 845 nM; GI50 (HCT-15 colon): 2230 nM; TGI (HCT-15 colon): 5990 nM; GI50 (NCI/ADR-RES ovarian): 13600 nM; TGI (NCI/ADR-RES ovarian): > 55600 nM
